Measured values taken from ChEMBL document CHEMBL1156904, “Part II: piperazinyl-glutamate-pyridines as potent orally bioavailable P2Y12 antagonists for inhibition of platelet aggregation” (Bioorg Med Chem Lett, 2010).

How the values were obtained:
P2Y purinoceptor 12 = P2Y purinoceptor 12 (Homo sapiens, UniProt Q9H244); assay: Inhibition of human P2Y12 receptor expressed in CHO cells
[1] = Antiplatelet activity in human platelet rich plasma assessed as inhibition of ADP-induced platelet aggregation; type: functional
[2] = Antiplatelet activity in human platelet rich plasma assessed as inhibition of ADP-induced platelet aggregation relative to AZD-6140; type: functional
[3] = Metabolic stability in rat microsomes; type: ADME, Microsome
[4] = Metabolic stability in human microsomes; type: ADME, Microsome
[5] = Clearance in Sprague-Dawley rat at 2 mg/kg, iv and 5 mg/kg, po; type: ADME, organism-based; details: in vivo
[6] = Volume of distribution at steady state in Sprague-Dawley rat at 2 mg/kg, iv and 5 mg/kg, po; type: ADME, organism-based; details: in vivo, read-out: Vdss
[7] = Effective half life in Sprague-Dawley rat at 2 mg/kg, iv and 5 mg/kg, po; type: ADME, organism-based; details: in vivo, read-out: t1/2eff (converted)
[8] = Clearance in Beagle dog at 0.2 mg/kg, iv and 0.2 mg/kg, po; type: ADME, organism-based, Canis lupus familiaris; details: in vivo
[9] = Volume of distribution at steady state in Beagle dog at 0.2 mg/kg, iv and 0.2 mg/kg, po; type: ADME, organism-based, Canis lupus familiaris; details: in vivo, read-out: Vdss
[10] = Effective half life in Beagle dog at 0.2 mg/kg, iv and 0.2 mg/kg, po; type: ADME, organism-based, Canis lupus familiaris; details: in vivo

Chain of P2Y purinoceptor 12 (Q9H244 whole entry): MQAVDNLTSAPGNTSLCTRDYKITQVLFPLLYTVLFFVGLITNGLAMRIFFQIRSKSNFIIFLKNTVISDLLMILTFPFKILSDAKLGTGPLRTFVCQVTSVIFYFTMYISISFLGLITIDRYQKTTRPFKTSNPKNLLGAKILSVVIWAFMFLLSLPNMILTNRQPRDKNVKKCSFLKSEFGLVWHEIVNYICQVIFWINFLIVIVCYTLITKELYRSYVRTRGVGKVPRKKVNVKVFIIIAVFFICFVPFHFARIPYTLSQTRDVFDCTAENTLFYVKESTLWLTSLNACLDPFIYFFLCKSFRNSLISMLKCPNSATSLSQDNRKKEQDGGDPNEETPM

SMILES | Ki (P2Y purinoceptor 12) [nM] | IC50 [1] [nM] | fold change (FC) [2] | Stability [3] | Stability [4] | clearance [5] [mL/min/kg] | Vd [6] [L/kg] | half-life [7] [min] | clearance [8] [mL/min/kg] | Vd [9] [L/kg] | half-life [10] [min]
CCCCCOC(=O)N1CCN(C(=O)[C@H](CCC(=O)O)NC(=O)c2cc(N3CCN(C(C)=O)CC3)cc(-c3ccccc3)n2)CC1 | 22 | 2300 | 2.7 | Stable | Stable | 70 | 2.4 | 24 | – | – | –
CCCCCOC(=O)N1CCN(C(=O)[C@H](CCC(=O)O)NC(=O)c2cc(N3CCC(C(=O)N4CCC4)CC3)cc(-c3ccccc3)n2)CC1 | 1.2 | 410 | 0.64 | Stable | Stable | 9 | 0.2 | 18 | – | – | –
CCCCOC(=O)N1CCN(C(=O)[C@H](CCC(=O)O)NC(=O)c2cc(N3CCC(C(=O)N(CC)CC)CC3)cc(-c3ccccc3)n2)CC1 | 1.1 | 430 | 0.71 | Stable | Stable | 24 | 0.9 | 24 | – | – | –
CCCCCOC(=O)N1CCN(C(=O)[C@H](CCC(=O)O)NC(=O)c2cc(N3CCC(C(=O)NCC)CC3)cc(-c3ccccc3)n2)CC1 | 0.58 | 650 | 1 | Stable | Stable | 11 | 0.3 | 18 | – | – | –
CCCCCOC(=O)N1CCN(C(=O)[C@H](CCC(=O)O)NC(=O)c2cc(N3CCN(C)CC3)cc(-c3ccccc3)n2)CC1 | 15 | 2300 | 2.5 | Stable | Stable | 141 | 10 | 48 | – | – | –
CCCCCOC(=O)N1CCN(C(=O)[C@H](CCC(=O)O)NC(=O)c2cc(N3CC[C@H](OCC(=O)N(C)C)C3)cc(-c3ccccc3)n2)CC1 | 5 | 660 | 0.75 | Stable | Stable | 41 | 0.8 | 12 | – | – | –
CCCCCOC(=O)N1CCN(C(=O)[C@H](CCC(=O)O)NC(=O)c2cc(N3CC[C@@H](OCC(=O)N(CC)CC)C3)cc(-c3ccccc3)n2)CC1 | 3.5 | 330 | 0.38 | Stable | Stable | 87 | 2.1 | 18 | – | – | –
CCCCCOC(=O)N1CCN(C(=O)[C@H](CCC(=O)O)NC(=O)c2cc(N3CCC(C(=O)N(CC)CC)CC3)cc(-c3ccccc3)n2)CC1 | 4 | 520 | 0.65 | Stable | Stable | 13 | 2.5 | 36 | 2 | 0.12 | 42
CCCCCOC(=O)N1CCN(C(=O)[C@H](CCC(=O)O)NC(=O)c2cc(N3CCC(CCN4CCCC4)CC3)cc(-c3ccccc3)n2)CC1 | 8 | 750 | 0.59 | Stable | Stable | – | – | – | – | – | –
CCCCOC(=O)N1CCN(C(=O)[C@H](CCC(=O)O)NC(=O)c2cc(N3CCC(C(=O)NC(C)C)CC3)cc(-c3ccccc3)n2)CC1 | 4.3 | 620 | 0.82 | Stable | Stable | – | – | – | – | – | –
CCCCCOC(=O)N1CCN(C(=O)[C@H](CCC(=O)O)NC(=O)c2cc(N3CCN(C(=O)C(C)C)CC3)cc(-c3ccccc3)n2)CC1 | 16 | 5000 | 6.6 | Stable | Stable | – | – | – | – | – | –
CCCCCOC(=O)N1CCN(C(=O)[C@H](CCC(=O)O)NC(=O)c2cc(N3CCC(C(=O)NC(C)C)CC3)cc(-c3ccccc3)n2)CC1 | 6 | 750 | 0.64 | Stable | Stable | – | – | – | – | – | –
CCCCCOC(=O)N1CCN(C(=O)[C@H](CCC(=O)O)NC(=O)c2cc(N3CCN(CC(=O)N(C)C)CC3)cc(-c3ccccc3)n2)CC1 | 4.9 | 690 | 1.1 | Stable | Stable | – | – | – | – | – | –
CCCCCOC(=O)N1CCN(C(=O)[C@H](CCC(=O)O)NC(=O)c2cc(N3CC[C@H](C(=O)N(CC)CC)C3)cc(-c3ccccc3)n2)CC1 | 1.7 | 4800 | 4.6 | Stable | Stable | – | – | – | – | – | –
CCCCCOC(=O)N1CCN(C(=O)[C@H](CCC(=O)O)NC(=O)c2cc(N3CCN(CC(=O)N4CCCC4)CC3)cc(-c3ccccc3)n2)CC1 | 5.2 | 1600 | 2.2 | Stable | Stable | – | – | – | – | – | –
CCCCCOC(=O)N1CCN(C(=O)[C@H](CCC(=O)O)NC(=O)c2cc(N3CCC(CCN(C)C)CC3)cc(-c3ccccc3)n2)CC1 | 12 | 390 | 0.54 | Stable | Stable | 145 | 5.1 | 24 | – | – | –
CCCCCOC(=O)N1CCN(C(=O)[C@H](CCC(=O)O)NC(=O)c2cc(N3CCC(C(=O)NC)CC3)cc(-c3ccccc3)n2)CC1 | 7.9 | 1600 | 0.86 | Stable | Stable | – | – | – | – | – | –
CCCCCOC(=O)N1CCN(C(=O)[C@H](CCC(=O)O)NC(=O)c2cc(N3CCN(CCOC)CC3)cc(-c3ccccc3)n2)CC1 | 8.3 | 1100 | 2.1 | Stable | Stable | – | – | – | – | – | –
CCCCCOC(=O)N1CCN(C(=O)[C@H](CCC(=O)O)NC(=O)c2cc(N3CCCC(CN4CCCC4)C3)cc(-c3ccccc3)n2)CC1 (stereo not given in full) | 7.3 | 1700 | 1.5 | Stable | Stable | 47 | 1.8 | 24 | – | – | –
CCCCCOC(=O)N1CCN(C(=O)[C@H](CCC(=O)O)NC(=O)c2cc(N3CCC(COC)CC3)cc(-c3ccccc3)n2)CC1 | – | 3900 | 3.3 | Stable | Stable | – | – | – | 1 | 0.14 | 90
CCCCCOC(=O)N1CCN(C(=O)[C@H](CCC(=O)O)NC(=O)c2cc(N3CCNCC3)cc(-c3ccccc3)n2)CC1 | 6.5 | 1900 | 2.3 | Stable | Stable | – | – | – | – | – | –
CCCCCOC(=O)N1CCN(C(=O)[C@H](CCC(=O)O)NC(=O)c2cc(N3CC[C@@H](C(=O)N(C)C)C3)cc(-c3ccccc3)n2)CC1 | 24 | 3600 | 3.8 | Stable | Stable | – | – | – | – | – | –
CCCCCOC(=O)N1CCN(C(=O)[C@H](CCC(=O)O)NC(=O)c2cc(N3CC(C(=O)NCC)C3)cc(-c3ccccc3)n2)CC1 | 2 | 1800 | 1.5 | Stable | Stable | – | – | – | – | – | –
CCCCCOC(=O)N1CCN(C(=O)[C@H](CCC(=O)O)NC(=O)c2cc(N3CCN(CCC)CC3)cc(-c3ccccc3)n2)CC1 | 29 | 5000 | 6.3 | Stable | Stable | – | – | – | – | – | –
CCCCCOC(=O)N1CCN(C(=O)[C@H](CCC(=O)O)NC(=O)c2cc(N3CCC(CN)CC3)cc(-c3ccccc3)n2)CC1 | 15 | 780 | 0.62 | Stable | Stable | – | – | – | – | – | –
CCCCCOC(=O)N1CCN(C(=O)[C@H](CCC(=O)O)NC(=O)c2cc(N3CCCC(C(=O)N(CC)CC)C3)cc(-c3ccccc3)n2)CC1 (stereo not given in full) | 26 | 7700 | 4.2 | Stable | Stable | – | – | – | – | – | –
CCCCOC(=O)N1CCN(C(=O)[C@H](CCC(=O)O)NC(=O)c2cc(N3CCC(CN(CC)CC)CC3)cc(-c3ccccc3)n2)CC1 | 7.5 | 2400 | 2.1 | Stable | Stable | – | – | – | – | – | –
CCCCCOC(=O)N1CCN(C(=O)[C@H](CCC(=O)O)NC(=O)c2cc(N3CCC(CN4CCCC4)CC3)cc(-c3ccccc3)n2)CC1 | 1.1 | 740 | 0.93 | Stable | Stable | – | – | – | – | – | –
